Test results as given in patent US5922545A, “In vitro peptide and antibody display libraries” (Affymax Technologies N.V., priority 1997, dated 1999).

Assays:
[1] = molecular target: mAb D32.39; assay: competition binding assay of synthesized peptides for mAb D32.39; conditions: 50 pM tracer peptide containing the D32.39 epitope sequence, IC50 should approximate the Kd, read-out: binding affinity for mAb D32.39 (IC50)
Excerpt: FIG. 6. (SEQ. ID NO: 50-74) Amino acid alignment of selected peptide sequences with dynorphin B. The six-residue D32.39 epitope sequence of dynorphin B and the peptide regions similar to it are shown in the box. A total of 6, 13, 19, and 9 independent clones were sequenced from rounds 2, 3, 4 and 5, respectively. The frequency indicates the number of times each sequence occurred among the clones isolated from each round, and the asterisks indicate identical sequences found in different rounds. Binding affinities for D32.39 were determined by chemically synthesizing the indicated peptide sequences and measuring the IC50 as described in the Experimental Examples.
Peptides were synthesized with an Applied Biosystems model 431A peptide synthesizer using Fmoc-protected amino acids. The peptides were purified to greater than 90% purity by HPLC and confirmed by mass spectroscopy. The competition binding assay was performed and included a low concentration (50 pM) of the tracer peptide containing the D32.39 epitope sequence.
Peptides corresponding to some of the enriched sequences were chemically synthesized, purified and their identity confirmed by mass spectrometry. A competition binding assay was used to estimate their affinity for the mAb D32.39 and under the conditions of the assays the IC50 value should approximate the Kd. […]

[2] = test system: mAb D32.39; assay: competition binding of radiolabelled polysomes to immobilized mAb D32.39; conditions: wells preincubated with 10 μH dynorphin B peptide for 1 hr at 4° C.
Protocol: FIG. 2. Specific binding of polysomes to mAb D32.39. Radiolabelled polysomes were isolated from reactions programmed with 1.5 μg of HindIII-linearized plasmid pLM138 or pLM142 and bound to microtiter wells containing the immobilized mAb. The recovered mIRNA was quantitated by TCA precipitation. (Panel A) Binding of polysomes containing the D32.39 epitope (closed boxes) or control (open boxes) sequences. (Panel B) Competition binding assay. Microtiter wells were preincubated with polysome buffer in the absence or presence of 10 μH dynorphin B peptide for 1 hr at 4° C. prior to adding 131,000 cpm of polysomes containing the D32.39 epitope (RQFKVVT) (SEQ ID NO:18) or control (VFKRTVQ) (SEQ ID NO:15) sequences.
Dynal beads were prepared according to the manufacturer. Microtiter wells were prepared for polysome binding by incubating each well with mAb D32.39 (5 μg per well) in PBS (10 mM sodium phosphate pH 7.4/120 mM NaCl/2.7 mM KCl) for 1 hr at 37° C., washing with PBS, blocking with PBS/1% nonfat milk for 1 hr at 37° C. and washing again with polysome buffer. Polysomes, as indicated, were incubated with the antibody for 2 hr at 4° C. […]
Specific Binding of Polysomes to mAb D32.39. The fraction of polysomes capable of binding specifically to mAb D32.39 via the nascent peptide was determined. […]

[3] = test system: peptidyl transferase activity of 50S ribosomal subunits; conditions: cited from earlier work
[4] = molecular target: iron response element (IRE); conditions: binds as a monomer; read-out: dissociation constant; cited from earlier work

Molecule: dynorphin B
- IC50 [1]: 0.29 nM
- blocking of binding of D32.39 epitope polysomes to mAb D32.39 [2]: binding was blocked

Molecule: MSTSKNAD [cmlA 8-mer peptide]
- inhibitory activity relative to chloramphenicol ([3]; as inhibitory as chloramphenicol): about 50%
- inhibitory activity relative to the cat 5-mer ([3]; more inhibitory than the cat 5-mer): about 5 fold

B1: IREBP: iron response element binding protein (98.4 kDal), RNA-binding protein (protein, UniProt P21399 1-889, looked up)
Cytoplasmic aconitate …: MSNPFAHLAEPLDPVQPGKKFFNLNKLEDSRYGRLPFSIRVLLEAAIRNCDEFLVKKQDIENILHWNVTQHKNIEVPFKPARVILQDFTGVPAVVDFAAMRDAVKKLGGDPEKINPVCPADLVIDHSIQVDFNRRADSLQKNQDLEFERNRERFEFLKWGSQAFHNMRIIPPGSGIIHQVNLEYLARVVFDQDGYYYPDSLVGTDSHTTMIDGLGILGWGVGGIEAEAVMLGQPISMVLPQVIGYRLMGKPHPLVTSTDIVLTITKHLRQVGVVGKFVEFFGPGVAQLSIADRATIANMCPEYGATAAFFPVDEVSITYLVQTGRDEEKLKYIKKYLQAVGMFRDFNDPSQDPDFTQVVELDLKTVVPCCSGPKRPQDKVAVSDMKKDFESCLGAKQGFKGFQVAPEHHNDHKTFIYDNTEFTLAHGSVVIAAITSCTNTSNPSVMLGAGLLAKKAVDAGLNVMPYIKTSLSPGSGVVTYYLQESGVMPYLSQLGFDVVGYGCMTCIGNSGPLPEPVVEAITQGDLVAVGVLSGNRNFEGRVHPNTRANYLASPPLVIAYAIAGTIRIDFEKEPLGVNAKGQQVFLKDIWPTRDEIQAVERQYVIPGMFKEVYQKIETVNESWNALATPSDKLFFWNSKSTYIKSPPFFENLTLDLQPPKSIVDAYVLLNLGDSVTTDHISPAGNIARNSPAARYLTNRGLTPREFNSYGSRRGNDAVMARGTFANIRLLNRFLNKQAPQTIHLPSGEILDVFDAAERYQQAGLPLIVLAGKEYGAGSSRDWAAKGPFLLGIKAVLAESYERIHRSNLVGMGVIPLEYLPGENADALGLTGQERYTIIIPENLKPQMKVQVKLDTGKTFQAVMRFDTDVELTYFLNGGILNYMIRKMAK
- Kd [4]: 0.02 to 0.05 nM
